Reference: patent US20060083830A1, “Polylysine-containing food additive and acidic adjuvant” (priority 2004, published 2006)
Where “and” joins values, the source holds several entries; their conditions need not be identical. Identical values can stand only once.

Tested on: Listeria monocytogenes
Assay: L. monocytogenes on cooked ground turkey balls blended with ε-polylysine, vacuum packaged, stored at 10° C., CFU determination
Type: cell-based
Conditions: for Log Reduction: vs control Group A
Method: Six groups of 20 g ground uncooked turkey balls were prepared, with 27 balls prepared per group. […] Groups B-F were blended with varying amounts of ε-polylysine (“ε-PL”). Final concentrations of ε-polylysine within the turkey balls were:
After preparation, all meatballs were placed on baking sheets and baked in a conventional oven at 350° F. for 20 minutes. After baking, the meatballs were packaged separately and stored at 4° C.
The mixture was further diluted 1:10,000 times with sterile saline to produce a suspension for use.
20 microliters of the Listeria monocytogenes suspension was inoculated onto the exterior of each turkey ball. Turkey balls were incubated at room temperature for 30 min post-inoculation to allow bacteria to attach. Turkey balls were individually vacuum packaged and stored at 10° C.
The microbiological assay was performed after 3 hours, 24 hours, 1 week, 2 weeks, 3 weeks, 4 weeks, 5 weeks, 7 weeks, and 8 weeks. After each designated time period had passed, three bags from each group of meat balls were unpacked, transferred to a stomacher bag along with 20 ml of sterile 0.1% peptone water. Each meatball was hand crushed and stomached at high speed for 2 minutes. […] The letter “{overscore (A)}” denotes average.

poly(imino(2-amino-1-oxo-1,6-hexanediyl)) [ε-PL]
CFU/g (1000 ppm ε-PL, after 1 week): 5.35E+06 CFU/g and 3.75E+06 CFU/g and 4.05E+06 CFU/g | average Log Value (1000 ppm ε-PL, after 1 week): 6.64 | average of CFU/g (1000 ppm ε-PL, after 1 week): 4.38E+06 CFU/g | Log Reduction (1000 ppm ε-PL, after 1 week): 1.64 | average Log Value (1000 ppm ε-PL, after 2 weeks): 7.61 | average of CFU/g (1000 ppm ε-PL, after 2 weeks): 4.09E+07 CFU/g | Log Reduction (1000 ppm ε-PL, after 2 weeks): 0.68 | average Log Value (1000 ppm ε-PL, after 3 weeks): 6.73 | average of CFU/g (1000 ppm ε-PL, after 3 weeks): 5.24E+06 CFU/g | Log Reduction (1000 ppm ε-PL, after 3 weeks): 1.66 | average Log Value (1000 ppm ε-PL, after 4 weeks): 7.73 | average of CFU/g (1000 ppm ε-PL, after 4 weeks): 5.42E+07 CFU/g | Log Reduction (1000 ppm ε-PL, after 4 weeks): 0.74 | average Log Value (1000 ppm ε-PL, after 5 weeks): 7.98 | average of CFU/g (1000 ppm ε-PL, after 5 weeks): 9.64E+07 CFU/g | Log Reduction (1000 ppm ε-PL, after 5 weeks): 0.44 | average Log Value (1000 ppm ε-PL, after 7 weeks): 7.80 | average of CFU/g (1000 ppm ε-PL, after 7 weeks): 6.33E+07 CFU/g | Log Reduction (1000 ppm ε-PL, after 7 weeks): 0.62 | average Log Value (1000 ppm ε-PL, after 8 weeks): 7.66 | average of CFU/g (1000 ppm ε-PL, after 8 weeks): 4.53E+07 CFU/g | Log Reduction (1000 ppm ε-PL, after 8 weeks): 0.68 | CFU/g (1000 ppm ε-PL, after 3 hours): 2.34E+02 CFU/g and 1.54E+02 CFU/g and 1.56E+02 CFU/g | average Log Value (1000 ppm ε-PL, after 3 hours): 2.26 | average of CFU/g (1000 ppm ε-PL, after 3 hours): 1.81E+02 CFU/g | Log Reduction (1000 ppm ε-PL, after 3 hours): 0.53 | average Log Value (1000 ppm ε-PL, after 24 hours): 3.25 | average of CFU/g (1000 ppm ε-PL, after 24 hours): 1.77E+03 CFU/g | Log Reduction (1000 ppm ε-PL, after 24 hours): >0.48 | average Log Value (2000 ppm ε-PL, after 1 week): 4.74 | average of CFU/g (2000 ppm ε-PL, after 1 week): 5.50E+04 CFU/g | Log Reduction (2000 ppm ε-PL, after 1 week): 3.54 | average Log Value (2000 ppm ε-PL, after 2 weeks): 4.98 | average of CFU/g (2000 ppm ε-PL, after 2 weeks): 9.57E+04 CFU/g | Log Reduction (2000 ppm ε-PL, after 2 weeks): 3.31 | average Log Value (2000 ppm ε-PL, after 3 weeks): 4.68 | average of CFU/g (2000 ppm ε-PL, after 3 weeks): 4.73E+04 CFU/g | Log Reduction (2000 ppm ε-PL, after 3 weeks): 3.72 | average Log Value (2000 ppm ε-PL, after 4 weeks): >6.44 | average of CFU/g (2000 ppm ε-PL, after 4 weeks): >2.76E+06 CFU/g | Log Reduction (2000 ppm ε-PL, after 4 weeks): <2.03 | average Log Value (2000 ppm ε-PL, after 5 weeks): 5.90 | average of CFU/g (2000 ppm ε-PL, after 5 weeks): 7.91E+05 CFU/g | Log Reduction (2000 ppm ε-PL, after 5 weeks): 2.53 | average Log Value (2000 ppm ε-PL, after 7 weeks): 6.66 | average of CFU/g (2000 ppm ε-PL, after 7 weeks): 4.53E+06 CFU/g | Log Reduction (2000 ppm ε-PL, after 7 weeks): 1.77 | average Log Value (2000 ppm ε-PL, after 8 weeks): 6.19 | average of CFU/g (2000 ppm ε-PL, after 8 weeks): 1.54E+06 CFU/g | Log Reduction (2000 ppm ε-PL, after 8 weeks): 2.15 | CFU/g (2000 ppm ε-PL, after 3 hours): 1.94E+02 CFU/g and 1.96E+02 CFU/g and 1.50E+02 CFU/g | average Log Value (2000 ppm ε-PL, after 3 hours): 2.26 | average of CFU/g (2000 ppm ε-PL, after 3 hours): 1.80E+02 CFU/g | Log Reduction (2000 ppm ε-PL, after 3 hours): 0.53 | CFU/g (2000 ppm ε-PL, after 24 hours): 1.98E+02 CFU/g and 2.64E+02 CFU/g and 2.14E+02 CFU/g | average Log Value (2000 ppm ε-PL, after 24 hours): 2.35 | average of CFU/g (2000 ppm ε-PL, after 24 hours): 2.25E+02 CFU/g | Log Reduction (2000 ppm ε-PL, after 24 hours): >1.37 | post-lethality effect (3000 ppm): > 1 log | average Log Value (3000 ppm ε-PL, after 1 week): 1.00 | average of CFU/g (3000 ppm ε-PL, after 1 week): 1.00E+01 CFU/g | Log Reduction (3000 ppm ε-PL, after 1 week): 7.28 | average Log Value (3000 ppm ε-PL, after 2 weeks): 1.44 | average of CFU/g (3000 ppm ε-PL, after 2 weeks): 2.73E+01 CFU/g | Log Reduction (3000 ppm ε-PL, after 2 weeks): 6.85 | average Log Value (3000 ppm ε-PL, after 3 weeks): <1.67 | average of CFU/g (3000 ppm ε-PL, after 3 weeks): <4.67E+01 CFU/g | Log Reduction (3000 ppm ε-PL, after 3 weeks): >6.72 | average Log Value (3000 ppm ε-PL, after 4 weeks): <0.43 | average of CFU/g (3000 ppm ε-PL, after 4 weeks): <2.67E+00 CFU/g | Log Reduction (3000 ppm ε-PL, after 4 weeks): >8.05 | CFU/g (3000 ppm ε-PL, after 5 weeks): <2.00E+00 CFU/g | average Log Value (3000 ppm ε-PL, after 5 weeks): <0.30 | average of CFU/g (3000 ppm ε-PL, after 5 weeks): <2.00E+00 CFU/g | Log Reduction (3000 ppm ε-PL, after 5 weeks): >8.12 | average Log Value (3000 ppm ε-PL, after 7 weeks): <1.08 | average of CFU/g (3000 ppm ε-PL, after 7 weeks): <1.20E+01 CFU/g | Log Reduction (3000 ppm ε-PL, after 7 weeks): >7.34 | CFU/g (3000 ppm ε-PL, after 8 weeks): <2.00E+00 CFU/g | average Log Value (3000 ppm ε-PL, after 8 weeks): <0.30 | average of CFU/g (3000 ppm ε-PL, after 8 weeks): <2.00E+00 CFU/g | Log Reduction (3000 ppm ε-PL, after 8 weeks): >8.03 | average Log Value (3000 ppm ε-PL, after 3 hours): 1.51 | average of CFU/g (3000 ppm ε-PL, after 3 hours): 3.20E+01 CFU/g | Log Reduction (3000 ppm ε-PL, after 3 hours): 1.28 | CFU/g (3000 ppm ε-PL, after 24 hours): 5.00E+01 CFU/g and 6.40E+01 CFU/g and 7.20E+01 CFU/g | average Log Value (3000 ppm ε-PL, after 24 hours): 1.79 | average of CFU/g (3000 ppm ε-PL, after 24 hours): 6.20E+01 CFU/g | Log Reduction (3000 ppm ε-PL, after 24 hours): >1.93 | average Log Value (4000 ppm ε-PL, after 1 week): <0.52 | average of CFU/g (4000 ppm ε-PL, after 1 week): <3.35E+00 CFU/g | Log Reduction (4000 ppm ε-PL, after 1 week): >7.76 | CFU/g (4000 ppm ε-PL, after 2 weeks): <2.00E+00 CFU/g | average Log Value (4000 ppm ε-PL, after 2 weeks): <0.30 | average of CFU/g (4000 ppm ε-PL, after 2 weeks): <2.00E+00 CFU/g | Log Reduction (4000 ppm ε-PL, after 2 weeks): >7.29 | CFU/g (4000 ppm ε-PL, after 3 weeks): <2.00E+00 CFU/g | average Log Value (4000 ppm ε-PL, after 3 weeks): <0.3 | average of CFU/g (4000 ppm ε-PL, after 3 weeks): <2.00E+00 CFU/g | Log Reduction (4000 ppm ε-PL, after 3 weeks): >8.09 | CFU/g (4000 ppm ε-PL, after 4 weeks): 2.00E+00 CFU/g and <2.00E+00 CFU/g | average Log Value (4000 ppm ε-PL, after 4 weeks): <0.30 | average of CFU/g (4000 ppm ε-PL, after 4 weeks): <2.00E+00 CFU/g | Log Reduction (4000 ppm ε-PL, after 4 weeks): >8.17 | CFU/g (4000 ppm ε-PL, after 5 weeks): <2.00E+00 CFU/g | average Log Value (4000 ppm ε-PL, after 5 weeks): <0.30 | average of CFU/g (4000 ppm ε-PL, after 5 weeks): <2.00E+00 CFU/g | Log Reduction (4000 ppm ε-PL, after 5 weeks): >8.12 | CFU/g (4000 ppm ε-PL, after 7 weeks): <2.00E+00 CFU/g | average Log Value (4000 ppm ε-PL, after 7 weeks): <0.30 | average of CFU/g (4000 ppm ε-PL, after 7 weeks): <2.00E+00 CFU/g | Log Reduction (4000 ppm ε-PL, after 7 weeks): >8.12 | CFU/g (4000 ppm ε-PL, after 8 weeks): <2.00E+00 CFU/g | average Log Value (4000 ppm ε-PL, after 8 weeks): <0.30 | average of CFU/g (4000 ppm ε-PL, after 8 weeks): <2.00E+00 CFU/g | Log Reduction (4000 ppm ε-PL, after 8 weeks): >8.03 | average Log Value (4000 ppm ε-PL, after 3 hours): <1.17 | average of CFU/g (4000 ppm ε-PL, after 3 hours): <1.47E+01 CFU/g | Log Reduction (4000 ppm ε-PL, after 3 hours): >1.62 | average Log Value (4000 ppm ε-PL, after 24 hours): 1.29 | average of CFU/g (4000 ppm ε-PL, after 24 hours): 1.93E+01 CFU/g | Log Reduction (4000 ppm ε-PL, after 24 hours): >2.44 | average Log Value (5000 ppm ε-PL, after 1 week): 1.95 | average of CFU/g (5000 ppm ε-PL, after 1 week): 8.87E+01 CFU/g | Log Reduction (5000 ppm ε-PL, after 1 week): 6.33 | average Log Value (5000 ppm ε-PL, after 2 weeks): <0.30 | average of CFU/g (5000 ppm ε-PL, after 2 weeks): <2.00E+00 CFU/g | Log Reduction (5000 ppm ε-PL, after 2 weeks): >7.99 | CFU/g (5000 ppm ε-PL, after 3 weeks): <2.00E+00 CFU/g | average Log Value (5000 ppm ε-PL, after 3 weeks): <0.30 | average of CFU/g (5000 ppm ε-PL, after 3 weeks): <2.00E+00 CFU/g | Log Reduction (5000 ppm ε-PL, after 3 weeks): >8.09 | average Log Value (5000 ppm ε-PL, after 4 weeks): <0.30 | average of CFU/g (5000 ppm ε-PL, after 4 weeks): <2.00E+00 CFU/g | Log Reduction (5000 ppm ε-PL, after 4 weeks): <8.17 | CFU/g (5000 ppm ε-PL, after 5 weeks): <2.00E+00 CFU/g | average Log Value (5000 ppm ε-PL, after 5 weeks): <0.30 | average of CFU/g (5000 ppm ε-PL, after 5 weeks): <2.00E+00 CFU/g | Log Reduction (5000 ppm ε-PL, after 5 weeks): >8.12 | CFU/g (5000 ppm ε-PL, after 7 weeks): <2.00E+00 CFU/g | average Log Value (5000 ppm ε-PL, after 7 weeks): <0.30 | average of CFU/g (5000 ppm ε-PL, after 7 weeks): <2.00E+00 CFU/g | Log Reduction (5000 ppm ε-PL, after 7 weeks): >8.12 | CFU/g (5000 ppm ε-PL, after 8 weeks): <2.00E+00 CFU/g | average Log Value (5000 ppm ε-PL, after 8 weeks): <0.30 | average of CFU/g (5000 ppm ε-PL, after 8 weeks): <2.00E+00 CFU/g | Log Reduction (5000 ppm ε-PL, after 8 weeks): >8.03 | average Log Value (5000 ppm ε-PL, after 3 hours): 0.60 | average of CFU/g (5000 ppm ε-PL, after 3 hours): 4.00E+00 CFU/g | Log Reduction (5000 ppm ε-PL, after 3 hours): 2.18 | average Log Value (5000 ppm ε-PL, after 24 hours): 0.73 | average of CFU/g (5000 ppm ε-PL, after 24 hours): 5.33E+00 CFU/g | Log Reduction (5000 ppm ε-PL, after 24 hours): >3.00 | outgrowth of Listeria (final concentration of 3000 ppm in ground turkey, eight week period, 10° C.): completely inhibited the outgrowth of Listeria
